Assay results reported in paper PMC7561186, “Rational design of balanced dual-targeting antibiotics with limited resistance” (PLoS Biology, 2020).
Like-named read-outs stand apart in the source and are kept apart here.

Tested on: S. aureus clinical isolates
Assay: microbe, parasite or virus in culture
Assay type: cell-based
Details: Staphylococcus aureus, read-out: MIC

Measured: MIC

Cc1onc(-c2ccccc2)c1C(=O)N[C@@H]1C(=O)N2[C@@H]1SC(C)(C)[C@@H]2C(=O)O [Oxacillin]
8 µg/mL: MRSA / NRS 37 / VISA, S. aureus IHMA 1308251, NRS37, MRSA / VISA
> 64 µg/mL: MRSA / NRS 3 / VISA, S. aureus IHMA 1308243, NRS3, MRSA / VISA | MRSA / NRS 4 / VISA, S. aureus IHMA 649380, NRS4, MRSA / VISA | MRSA / NRS 19 / VISA, S. aureus IHMA 649387, NRS19, MRSA / VISA | MRSA / NRS 21 / VISA, S. aureus IHMA 649388, NRS21, MRSA / VISA | MRSA / NRS 23 / VISA, S. aureus IHMA 649390, NRS23, MRSA / VISA | MRSA / NRS 24 / VISA, S. aureus IHMA 649391, NRS24, MRSA / VISA | MRSA / NRS 26, S. aureus IHMA 649392, NRS26, MRSA / VSSA | MRSA / NRS 27 / VISA, S. aureus IHMA 1308248, NRS27, MRSA / VISA | MRSA / NRS 29 / VISA, S. aureus IHMA 1308250, NRS29, MRSA / VISA | MRSA / NRS 54, S. aureus IHMA 1308253, NRS54, MRSA / VSSA* (*Expected VAN intermediate, confirmed VAN susceptible twice), test date 2018-11-07 | MRSA / NRS 56 / VISA, S. aureus IHMA 1308254, NRS56, MRSA / VISA | MRSA / USA100 / VRSA, S. aureus IHMA 672230, VRS1, MRSA / VRSA, USA100 | MRSA / USA100 / VRSA, S. aureus IHMA 672231, VRS2, MRSA / VRSA, USA100 | MRSA / USA100 / VRSA, S. aureus IHMA 672234, VRS4, MRSA / VRSA, USA100 | MRSA / USA100 / VRSA, S. aureus IHMA 672235, VRS5, MRSA / VRSA, USA100 | MRSA / USA100 / VRSA, S. aureus IHMA 672237, VRS7, MRSA / VRSA, USA100 | MRSA / USA100 / VRSA, S. aureus IHMA 672238, VRS8, MRSA / VRSA, USA100 | MRSA / USA100 / VRSA, S. aureus IHMA 672239, VRS9, MRSA / VRSA, USA100 | MRSA / USA100 / VRSA, S. aureus IHMA 1308256, VRS10, MRSA / VRSA, USA100 | MRSA / USA800 / VRSA, S. aureus IHMA 672233, VRS3b, MRSA / VRSA, USA800 | MRSA, S. aureus IHMA 1569509, MRSA / VSSA | MRSA, S. aureus IHMA 1575268, MRSA / VSSA | MRSA, S. aureus IHMA 1580300, MRSA / VSSA | MRSA, S. aureus IHMA 1582100, MRSA / VSSA | MRSA, S. aureus IHMA 1583795, MRSA / VSSA | MRSA, S. aureus IHMA 1584223, MRSA / VSSA | MRSA, S. aureus IHMA 1585316, MRSA / VSSA | MRSA, S. aureus IHMA 1587322, MRSA / VSSA | MRSA, S. aureus IHMA 1592755, MRSA / VSSA | MRSA, S. aureus IHMA 1597106, MRSA / VSSA | MRSA, S. aureus IHMA 1611612, MRSA / VSSA | MRSA, S. aureus IHMA 1612228, MRSA / VSSA | MRSA, S. aureus IHMA 1620441, MRSA / VSSA | MRSA, S. aureus IHMA 1622252, MRSA / VSSA | MRSA, S. aureus IHMA 1695391, MRSA / VSSA | MRSA, S. aureus IHMA 1732989, MRSA / VSSA | MRSA, S. aureus IHMA 1742231, MRSA / VSSA
0.25 µg/mL: ATCC 29213 / MSSA, S. aureus ATCC 29213, MSSA / VSSA, test date 2018-10-25 (three repeat lines) | ATCC 29213 / MSSA, S. aureus ATCC 29213, MSSA / VSSA, test date 2018-11-07 | MSSA / NRS 12 / VISA, S. aureus IHMA 1308244, NRS12, MSSA / VISA | MSSA / NRS 14 / VISA, S. aureus IHMA 1308246, NRS14, MSSA / VISA | MSSA, S. aureus IHMA 1563826, MSSA / VSSA | MSSA, S. aureus IHMA 1565492, MSSA / VSSA | MSSA, S. aureus IHMA 1582691, MSSA / VSSA | MSSA, S. aureus IHMA 1587279, MSSA / VSSA | MSSA, S. aureus IHMA 1591459, MSSA / VSSA | MSSA, S. aureus IHMA 1592749, MSSA / VSSA | MSSA, S. aureus IHMA 1597120, MSSA / VSSA | MSSA, S. aureus IHMA 1604609, MSSA / VSSA | MSSA, S. aureus IHMA 1609919, MSSA / VSSA
32 µg/mL: MRSA, S. aureus IHMA 1577820, MRSA / VSSA | MRSA, S. aureus IHMA 1580940, MRSA / VSSA | MRSA, S. aureus IHMA 1586780, MRSA / VSSA | MRSA, S. aureus IHMA 1588127, MRSA / VSSA | MRSA, S. aureus IHMA 1591462, MRSA / VSSA | MRSA, S. aureus IHMA 1592776, MRSA / VSSA | MRSA, S. aureus IHMA 1602095, MRSA / VSSA | MRSA, S. aureus IHMA 1621638, MRSA / VSSA | MRSA, S. aureus IHMA 1622527, MRSA / VSSA | MRSA, S. aureus IHMA 1720350, MRSA / VSSA | MRSA, S. aureus IHMA 1766357, MRSA / VSSA
16 µg/mL: MRSA / NRS 22 / USA600 / VISA, S. aureus IHMA 649389, NRS22, MRSA / VISA, USA600 | MRSA / USA100 / VRSA, S. aureus IHMA 1308258, VRS11b, MRSA / VRSA, USA100 | MRSA, S. aureus IHMA 1611170, MRSA / VSSA | MRSA, S. aureus IHMA 1666371, MRSA / VSSA
0.5 µg/mL: MSSA / NRS 13 / VISA, S. aureus IHMA 1308245, NRS13, MSSA / VISA | MSSA, S. aureus IHMA 1575779, MSSA / VSSA | MSSA, S. aureus IHMA 1576329, MSSA / VSSA | MSSA, S. aureus IHMA 1577800, MSSA / VSSA | MSSA, S. aureus IHMA 1578560, MSSA / VSSA | MSSA, S. aureus IHMA 1580233, MSSA / VSSA | MSSA, S. aureus IHMA 1580925, MSSA / VSSA | MSSA, S. aureus IHMA 1580955, MSSA / VSSA | MSSA, S. aureus IHMA 1582586, MSSA / VSSA | MSSA, S. aureus IHMA 1584230, MSSA / VSSA | MSSA, S. aureus IHMA 1592751, MSSA / VSSA | MSSA, S. aureus IHMA 1594297, MSSA / VSSA | MSSA, S. aureus IHMA 1597125, MSSA / VSSA | MSSA, S. aureus IHMA 1599157, MSSA / VSSA | MSSA, S. aureus IHMA 1599506, MSSA / VSSA | MSSA, S. aureus IHMA 1604586, MSSA / VSSA | MSSA, S. aureus IHMA 1622864, MSSA / VSSA | MSSA, S. aureus IHMA 1626392, MSSA / VSSA | MSSA, S. aureus IHMA 1713793, MSSA / VSSA
0.12 µg/mL: MSSA / NRS 52, S. aureus IHMA 1308252, NRS52, MSSA / VSSA* (*Expected VAN intermediate, confirmed VAN susceptible twice), test date 2018-11-07
1 µg/mL: MSSA, S. aureus IHMA 1569499, MSSA / VSSA | MSSA, S. aureus IHMA 1569754, MSSA / VSSA | MSSA, S. aureus IHMA 1575652, MSSA / VSSA | MSSA, S. aureus IHMA 1602078, MSSA / VSSA
64 µg/mL: MRSA / NRS 18 / VISA, S. aureus IHMA 649386, NRS18, MRSA / VISA | MRSA, S. aureus IHMA 1575629, MRSA / VSSA | MRSA, S. aureus IHMA 1703428, MRSA / VSSA
2 µg/mL: MSSA / NRS 17 / VISA, S. aureus IHMA 1308247, NRS17, MSSA / VISA | MSSA / NRS 28 / VISA, S. aureus IHMA 1308249, NRS28, MSSA / VISA | MSSA / USA100 / VRSA, S. aureus IHMA 672236, VRS6, MSSA / VRSA, USA100 | MSSA, S. aureus IHMA 1574202, MSSA / VSSA
